Source: BindingDB's records for doi:10.1021/jm2013997 (Oxagen, 2012)

Legend:
[1] = Antagonist activity at CRTH2 in human eosinophils assessed as inhibition of PGD2-induced shape change by gated autofluorescence forward scatter analysis
[2] = Partial antagonist activity at CRTH2 in human eosinophils assessed as inhibition of PGD2-induced shape change by FACS analysis

IC50 [1]	EC50 [2]	SMILES
44 nM		C[C@H](Oc1ccc(F)cc1-c1ccc(C(=O)N2CCCC2(C)C)c(Cl)c1)C(=O)O
626 nM		CN(C)c1nc(Cc2ccc(NC(=O)c3ccc(C(F)(F)F)cc3)cc2)nc(N(C)C)c1CC(=O)O [2-(4,6-bis(dimethylamino)-2-(4-(4-(trifluoromethyl)benzamido)benzyl)pyrimidin-5-yl)acetic acid]
	389 nM	COc1ccc2c(c1)c(CC(=O)O)c(C)n2C(=O)c1ccc(Cl)cc1 [indometacin]
